Assay results reported in patent publication US6947790B2, “Neurocognitive function EEG measurement method and system” (priority 2000, dated 2005).
Where two headings read alike, the source gives them in different places.

Key:
children with ADHD [1] = assay: Experiment 9: spatial WM task performance; assay type: in vivo, human; settings: medicated vs unmedicated state; Dexedrine 20 mg, methylphenidate 10 mg
From the text: Experiment. Participants (a total of N=14, evenly divided between boys and girls) were referred to this study by local ADHD specialists. All participants had been diagnosed with the combined subtype of ADHD and were currently undergoing treatment with stimulant medication. Inclusion criteria include age 8-12 years, no mental retardation or neurological impairment, and full-scale IQ in the normal range as measured by the WISC-III (Wechsler, 1991). Participants were paid $10/hour for their participation, and were reimbursed for transportation costs. To increase motivation, the children were also rewarded with toys for good performance.
(§1) EEG and behavioral data were collected while the children performed low load and high load versions of the spatial WM task described above. […] Participants were tested on each of three occasions at the same time of day with a week between sessions. The first occasion was an orientation and training session in which subjects learned and practiced the tasks until performance reached asymptote. On the other occasions they were tested either while medicated or while abstaining from their normal dose of medication, with order of treatment counterbalanced across subjects. […]

children with ADHD [2] = assay: Experiment 9: EEG and ERP; assay type: in vivo, human
Procedure: as §1, with “subjects. A scientist not otherwise involved with the study maintained the schedule of medication and no-medication days so that the research assistant performing the testing and preliminary analyses was blind to medication status. Data from the orientation day was not included in formal analyses. On the other days subjects first performed a single 23-trial block of each of the task conditions as a warm-up procedure. They then performed 4 more 23-trial blocks of each test version in randomized order.” for “subjects.”
In each session, multi-channel EEG was recorded from multiple “10-10 System” scalp locations (bandpass 0.1-100 Hz, 256 Hz sampling rate, linked mastoid reference) using a custom-made electrode cap. EOG was recorded from above and below the left eye, and from outer canthus of each eye. […]

healthy adults [3] = assay: Experiment 1: subjective sleepiness ratings (Karolinska Sleepiness Scale); assay type: in vivo, human; settings: 50 mg diphenhydramine, 200-mg caffeine or 0.88 g/kg ethanol, four post-treatment intervals
Procedure: (§2) Each subject participated in […] sessions. The first session was a practice session in which subjects learned to perform the working memory tasks. After training, all subjects participated in 4 sessions, separated by at least one week. […] The four drug sessions were conducted according to a double blind, placebo-controlled, randomized, counterbalanced, crossover design. In each session, subjects consumed two pills (unmarked gelatin capsules) and a mixed drink. […] The pills were given with a 500 cc drink containing either 0.88 g/kg 95% ethanol mixed in fruit juice (adequate to produce an average peak blood alcohol content (BAC) of 0.08), or containing 495 cc of fruit juice with 5 cc of alcohol floated on top to mimic the smell and taste of the treatment drink.
(§3) Each drug session involved a baseline recording before drug administration. This was followed by four post-drug recording intervals, each lasting approximately 40 minutes. The first interval began 0.5 hrs after drug ingestion; the remaining three intervals occurred hourly thereafter. A scientist not otherwise involved in the experiment administered a Breathalyzer test at the beginning of each interval. Subjects also completed the Karolinska and Stanford sleepiness scales at each test period.

healthy adults [4] = assay: Experiment 1: n-back working memory task performance; assay type: in vivo, human; settings: for Accuracy in working memory task vs placebo / Reaction time in working memory task vs placebo: low load and high load tasks
From the text: Subjects performed two difficulty levels of a continuous performance, n-back working memory task, versions of which we have employed in many other EEG studies. In this task, subjects were required to compare the spatial location of the current stimulus with that of one presented previously. Briefly, single capital letter stimuli, drawn randomly from a set of twelve, were presented for 200 msec once every 4.5 sec on a computer monitor. At 1.3 sec prior to stimulus onset, a warning cue (a small “x”) appeared in the center of the screen for 200 msec. The letter stimulus occurred 1.3 sec after the cue in one of twelve possible locations on the monitor. The identity of the letter and its spatial position varied randomly from trial to trial. A small fixation dot was continuously present at the center of the screen. In a low load version of the task, subjects were required to match the position of the current stimulus with the position of the very first stimulus presented in the block. In a high load version of the task, subjects compared the current stimulus with that presented two trials previously. In this version subjects were required to remember two positions (and their sequential order) for the duration of two trials (nine seconds), and to update that information on each subsequent trial. In both versions of the task, stimuli were presented in blocks of 53 trials (the first three trials were warm-up trials and were discarded from analysis). Matches occurred randomly on 50% of the trials. Subjects were instructed to respond as quickly and as accurately as possible.
as §2, §3
(§4) EEG was continuously recorded from 28 scalp electrodes using a digitally linked-mastoids reference. EOG was recorded from electrodes placed above and below one eye, and at the other canthi of each eye. Physiological signals were band-pass filtered at 0.01 to 100 Hz and sampled at 256 Hz. Automated artifact detection was followed by application of adaptive eye contaminant removal filters. The data were then visually inspected and data segments containing possible residual artifacts were eliminated from subsequent analyses. To examine the effects of the pharmacological interventions on individual EEG or behavioral variables, univariate repeated measures analyses of variance (ANOVAs) were used to compare data from each of the three treatment conditions with the placebo condition.

healthy adults [5] = settings: for Parietal alpha during task performance vs placebo: both task conditions; for Delta band power during resting conditions vs placebo / Theta band power during resting conditions vs placebo: both resting conditions
Procedure: as §3, §4
For neurophysiological features, average power was extracted from individual spectral bands at individual electrode sites, and then compared across test conditions. Decisions as to which parameters to extract from the spectra were based on the results of prior studies. For the task related EEG, past studies indicate that the frontal midline theta rhythm and the parietal alpha rhythm are sensitive to variations in the attentional demands of tasks, and, in particular, to the increase in difficulty in the working memory tasks employed here. For the EEG recorded under passive resting conditions, past studies indicate that activity in the delta and theta bands at posterior sites, and the alpha rhythm measured over the occipital region, are highly sensitive to variations in alertness and arousal. Each of the individual features was compared between placebo and each drug condition in univariate ANOVAs with repeated measures.

healthy adults [6] = assay: Experiment 2: Neurocognitive Function Change (NCFC) index; assay type: in vivo, human; settings: for NCFC index change from pre-medication baseline: 16 subjects, t1-t4
From the text: In this hybrid approach, multiple if-then rules gleaned from expert knowledge are applied to data to produce many low-level decisions about the direction of a change between two states. These local decisions are made with respect to single data parameters and the output of these rule-based functions serve as the inputs to a combinatorial network that in turn produces a single summary index of the direction and magnitude of change of neurocognitive function from a baseline state to a test state. As with a knowledgeable human expert assessing an ambiguous problem, decisions about the direction and severity of a change are based on consideration of a variety of pieces of diagnostic evidence, no one of which is central to the overall decision.
The output from the algorithm is the composite of three sub indices. The Behavioral Performance sub index incorporates measures of psychomotor speed and accuracy during task performance. The Neurophysiological Cognitive sub index incorporates attention-related EEG variables recorded during task performance (e.g. parameters of attention-related ERP components such as P300 and spectral measures of task load-related EEG modulation). The Neurophysiological Alertness sub index incorporates alertness-related physiological variables (e.g. measures of low frequency EEG activity and slow, rolling eye movement activity) recorded during passive resting conditions. The composite Neurocognitive Function Change (NCFC) index provides a summary score indicating direction and degree of change in neurocognitive status from a baseline state. In FIG. 6, each time point reflects change from the pre-medication baseline at t0 . […] In addition to the summary NCFC score presented in FIG. 6, consideration of the output of the sub indices can also provide specific information concerning the manner in which neurocognitive function has changed from baseline. […]

[7] = average
Procedure: as §2, §3

healthy elderly subjects [8] = assay: Experiment 8: resting and task-related EEG and ERP in elderly; assay type: in vivo, human
healthy elderly subjects [9] = assay: Experiment 8: WM and ITM task performance in elderly; assay type: in vivo, human
healthy elderly subjects [10] = assay: Experiment 8: subjective sleepiness in elderly (Karolinska sleepiness scale)

Structure (SMILES)	Working memory task performance in an individual subject (children with ADHD [1])	Subjective sleepiness relative to placebo (healthy adults [3])	Accuracy in working memory task vs placebo (healthy adults [4])	Reaction time in working memory task vs placebo (healthy adults [4])	Direction of significant (p < .05) change in spectral power (vs. placebo): Oz alpha (healthy adults [5]; Resting EEG Eyes Closed)	Direction of significant (p < .05) change in spectral power (vs. placebo): Pz delta (healthy adults [5]; Resting EEG Eyes Closed)	Direction of significant (p < .05) change in spectral power (vs. placebo): Pz theta (healthy adults [5]; Resting EEG Eyes Closed)	Direction of significant (p < .05) change in spectral power (vs. placebo): Oz alpha (healthy adults [5]; Resting EEG Eyes Open)	Direction of significant (p < .05) change in spectral power (vs. placebo): Pz delta (healthy adults [5]; Resting EEG Eyes Open)	Direction of significant (p < .05) change in spectral power (vs. placebo): Pz theta (healthy adults [5]; Resting EEG Eyes Open)	Direction of significant (p < .05) change in spectral power (vs. placebo): Pz alpha (healthy adults [5]; Task EEG High Load)	Direction of significant (p < .05) change in spectral power (vs. placebo): aFz theta (healthy adults [5]; Task EEG High Load)	Direction of significant (p < .05) change in spectral power (vs. placebo): Pz alpha (healthy adults [5]; Task EEG Low Load)	Direction of significant (p < .05) change in spectral power (vs. placebo): aFz theta (healthy adults [5]; Task EEG Low Load)	Parietal alpha during task performance vs placebo (healthy adults [5])	NCFC index change from pre-medication baseline (healthy adults [6])	Frontal midline theta rhythm during task performance vs placebo (healthy adults [5])	Delta band power during resting conditions vs placebo (healthy adults [5])	Theta band power during resting conditions vs placebo (healthy adults [5])	other results
C[C@H](N)Cc1ccccc1 [Dexedrine]	markedly better in the medicated state	–	–	–	–	–	–	–	–	–	–	–	–	–	–	–	–	–	–	Alpha rhythm, high load vs low load, in an individual subject (children with ADHD [2]; Dexedrine 20 mg): larger difficulty-related differences
COC(=O)C(c1ccccc1)C1CCCCN1 (stereo not drawn) [methylphenidate]	markedly better in the medicated state	–	–	–	–	–	–	–	–	–	–	–	–	–	–	–	–	–	–	P300 amplitude in an individual subject (children with ADHD [2]; methylphenidate 10 mg): larger in the medicated condition
Cn1c(=O)c2c(ncn2C)n(C)c1=O [caffeine]	–	did not produce subjective sleepiness ratings significantly different from placebo	No significant behavioral differences	No significant behavioral differences	▬	▬	▬	▬	▬	▬	▾	▬	▾	▬	significant reduction in alpha band power at parietal sites	little change from baseline	–	–	–	Resting EEG data relative to placebo (healthy adults [5]): did not produce significant differences in resting EEG data relative to placebo
CCO [alcohol, ethanol]	–	significant increase in subjective sleepiness relative to placebo at the 1.5-2 hr, 2.5-3 hr and 3.5-4 hr post-treatment intervals	no significant main effects	slightly faster in the high load task, and slightly slower in the low load task	▬	▴	▴	▬	▴	▴	▴	▴	▴	▴	increased in the amplitude	similar, though less extreme, pattern of impairment	increased in the amplitude	increased the power	increased the power	peak BAC ([7]; first post-treatment interval): 0.08; BAC ([7]; last post-treatment interval): 0.03; NCFC sub index most affected (healthy adults [6]; in vivo): relative greater effect on the Neurophysiological Attention sub index
CN(C)CCOC(c1ccccc1)c1ccccc1 [diphenhydramine]	–	–	less accurately	significantly more slowly	–	–	–	–	–	–	–	–	–	–	–	–	reduction in power for the frontal midline theta rhythm in the high load task only	increase in power in the delta	trend towards increasing	Time of nadir of task performance (healthy adults [4]; post drug, third post-ingestion interval): 2.5 to 3 h; Alpha band power, eyes-closed resting condition vs placebo (healthy adults [5]): attenuation of power in the alpha band in the eyes-closed resting condition; Alpha band power, eyes-open resting condition vs placebo (healthy adults [5]): no significant change in power during the eyes-open resting condition; Slow eye movement activity during resting conditions (healthy adults [5]; discussion): increase in the incidence of slow eye movement activity; Amplitude of posterior P200 in ITM task (healthy elderly subjects [8]): larger after diphenhydramine ingestion than after placebo ingestion; N160 and P350 ERP in WM task (healthy elderly subjects [8]; low and high load tasks): significantly smaller following diphenhydramine ingestion than placebo; Resting EEG delta and theta power (healthy elderly subjects [8]; posterior regions): increase in power in the delta and theta bands over posterior regions; ITM task RT and word recognition accuracy (healthy elderly subjects [9]): did not show significant effects of diphenhydramine; WM task performance (healthy elderly subjects [9]): did not significantly affect task performance; Time of greatest subjective sleepiness (healthy elderly subjects [10]; after ingestion): 2.5 h; Subjective sleepiness vs placebo (healthy elderly subjects [10]; elderly, 50 mg): significantly sleepier
